Test results taken from patent US20080305544A1, “Method of Producing Nerve Cell” (KYOWA HAKKO KOGYO CO., LTD. TOKYO, JAPAN, priority 2004, published 2008).

Experiments:
ES cell EB5 [1] = assay: Number of total colonies formed from EB5 after 14 days of differentiation induction culture; type: cell-based; conditions: vitamin B12 added; heparin 0% vs 0.01% addition condition; 14 days after commencement of culturing; FIG. 1
Protocol: In the following Examples, an ES cell EB5 [Nature Genet., 24, 372, (2000)] was used as the embryonic stem cell.
The EB5 was inoculated into a dish coated with 0.1% of gelatin and sub-cultured at 37° C. in a CO2 incubator ventilated with 5% of carbon dioxide while keeping its undifferentiated state, using G-MEM (Invitrogen) containing 1% fetal bovine serum (manufactured by JRH Biosciences), 10% Knockout Serum Replacement (manufactured by Invitrogen), 1 mmol/l pyruvic acid (manufactured by Sigma), 0.1 mmol/l nonessential amino acids (manufactured by Invitrogen), 0.1 mmol/12-mercaptoethanol (manufactured by Nacalai Tesque), […] blasticidin (manufactured by Invitrogen) and 2×10^3 U/ml ESGRO (manufactured by Chemicon) (to be referred to as “maintenance medium” hereinafter). […]
On the 14th day after addition of the test solution 1, colonies having a diameter of 50 μm or more were counted using an optical microscope to calculate the number of total colonies. Also, among the colonies, a colony on which neurite was observed was regarded as a nerve cell colony, and the nerve cell inducing ratio was calculated by the following formula.

ES cell EB5 [2] = assay: Nerve cell inducing ratio: colonies with neurite / total colonies, differentiation induction of EB5; type: cell-based; conditions: for activity to induce differentiation of embryonic stem cells into nerve cells by the combination of heparin and vitamin B12: substance added to 0.01% heparin and 100 nmol/l vitamin B12, conclusion of Example 2; for induction of nerve cells (nerve cell inducing ratio): FIG. 2
Protocol: In the following Examples, an ES cell EB5 [Nature Genet., 24, 372, (2000)] was used as the embryonic stem cell. The EB5 was inoculated into a dish coated with 0.1% of gelatin and sub-cultured at 37° C. in a CO2 incubator ventilated with 5% of carbon dioxide while keeping its undifferentiated state, using G-MEM (Invitrogen) containing 1% fetal bovine serum (manufactured by JRH Biosciences), 10% Knockout Serum Replacement (manufactured by Invitrogen), 1 mmol/l pyruvic acid (manufactured by Sigma), 0.1 mmol/l nonessential amino acids (manufactured by Invitrogen), 0.1 mmol/12-mercaptoethanol (manufactured by Nacalai Tesque), […] blasticidin (manufactured by Invitrogen) and 2×10^3 U/ml ESGRO (manufactured by Chemicon) (to be referred to as “maintenance medium” hereinafter). When differentiation of EB5 is induced, 2.5×10^3 cells of EB5 were inoculated into a 24 well plate coated with 0.1% of gelatin, a medium prepared by eliminating serum, blasticidin and ESGRO from the maintenance medium (hereinafter referred to as “differentiation induction medium”) was added at 1 ml to respective wells, and the cells were allowed to adhere thereto by incubating at 37° C. for 2 hours. Thereafter, 500 μl of PBS containing various concentration of heparin (manufactured by Sigma) or vitamin B12 (cyanocobalamin, manufactured by Nacalai Tesque) (hereinafter referred to as “test solution 1”) was added thereto and incubated at 37° C. for 14 days without changing the medium. Each test condition was carried out in tandem. In this connection, the concentrations of heparin and vitamin B12 mean their concentrations in the test solution 1. On the 14th day after addition of the test solution 1, colonies having a diameter of 50 μm or more were counted using an optical microscope to calculate the number of total colonies. Also, among the colonies, a colony on which neurite was observed was regarded as a nerve cell colony, and the nerve cell inducing ratio was calculated by the following formula. Nerve cell inducing ratio(%)=the number of nerve cell colonies/the number of total colonies×100 Nerve cell inducing differentiation ratio was examined in the same manner as in Example 1, except that PBS containing 0.01% of heparin and 100 nmol/l of vitamin B12 (hereinafter referred to as “test solution 2”), a test solution 3 containing 0.1 μg/ml of biotin [(+)-biotin, manufactured by Wako Pure Chemical Industries] in the test solution 2, a test solution 4 containing 0.42 μg/ml of K4[Fe(CN)6] (manufactured by Nacalai Tesque) in the test solution 2, a test solution 5 containing 0.081 μg/ml of putrescine (manufactured by Sigma) in the test solution 2, a test solution 6 containing 0.1 μg/ml of biotin, 0.42 μg/ml of K4[Fe(CN)6] and 0.081 μg/ml of putrescine in the test solution 2 and a test solution 7 containing 0.01% of heparin, 0.1 […] of biotin, 0.42 μg/ml of K[Fe(CN)6] and 0.081 μg/ml of putrescine were used instead of the test solution 1 in the above-described Example 1.

**Q.** For heparin, which “number of total colonies” value (ES cell EB5 [1]) is on record?
**A.** The value was “difference in the number of total colonies was not found”.

**Q.** And the “induction of nerve cells (number of nerve cell colonies)” value (ES cell EB5 [2]; vitamin B12 not added, heparin concentration varied, 14 days, FIG. 3)?
**A.** Its value is “hardly induced”.

**Q.** With `NCCCCN` [putrescine] as the molecule, how does the “activity to induce differentiation of embryonic stem cells into nerve cells by the combination of heparin and vitamin B12” value (ES cell EB5 [2]) read?
**A.** The value was “reinforced”.

**Q.** For `O=C(O)CCCC[C@@H]1SC[C@@H]2NC(=O)N[C@@H]21` [biotin, (+)-biotin], which “activity to induce differentiation of embryonic stem cells into nerve cells by the combination of heparin and vitamin B12” value (ES cell EB5 [2]) is on record?
**A.** The value was “reinforced”.

**Q.** What does the source list for cyanocobalamin [vitamin B12]?
**A.** induction of nerve cells (nerve cell inducing ratio) (ES cell EB5 [2]; heparin 0% addition condition, vitamin B12 added, 14 days): hardly induced; induction of nerve cells (nerve cell inducing ratio) (ES cell EB5 [2]; heparin 0.01% addition condition, vitamin B12 concentration varied, 14 days): nerve cells are induced
